This is an account of results in patent publication US20130324522A1, “INSECT ODORANT RECEPTOR ANTAGONISTS” (THE ROCKEFELLER UNIVERSITY, priority 2010, published 2013).

One test deals with T1, OR2/OR7 (Anopheles gambiae, UniProt Q7QCC7+Q8WTE6).
T1 construct: Full-length cDNAs for mosquito (Anopheles gambiae) odorant receptor (OR1, OR2, OR7, OR8, OR28); expressed in transfected cells
T1 sequence (Q8WTE6 1-378): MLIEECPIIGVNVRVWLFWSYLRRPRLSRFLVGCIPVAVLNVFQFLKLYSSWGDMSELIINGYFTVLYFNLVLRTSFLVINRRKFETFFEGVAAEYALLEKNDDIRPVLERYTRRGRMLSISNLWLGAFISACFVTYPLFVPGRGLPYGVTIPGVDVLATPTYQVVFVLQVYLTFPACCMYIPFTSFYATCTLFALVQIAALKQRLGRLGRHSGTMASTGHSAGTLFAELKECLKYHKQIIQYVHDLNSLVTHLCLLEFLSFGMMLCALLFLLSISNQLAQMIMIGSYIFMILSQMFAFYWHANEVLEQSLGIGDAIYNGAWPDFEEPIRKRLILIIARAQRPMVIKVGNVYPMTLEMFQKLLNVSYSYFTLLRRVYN
T1 sequence (Q7QCC7 1-478): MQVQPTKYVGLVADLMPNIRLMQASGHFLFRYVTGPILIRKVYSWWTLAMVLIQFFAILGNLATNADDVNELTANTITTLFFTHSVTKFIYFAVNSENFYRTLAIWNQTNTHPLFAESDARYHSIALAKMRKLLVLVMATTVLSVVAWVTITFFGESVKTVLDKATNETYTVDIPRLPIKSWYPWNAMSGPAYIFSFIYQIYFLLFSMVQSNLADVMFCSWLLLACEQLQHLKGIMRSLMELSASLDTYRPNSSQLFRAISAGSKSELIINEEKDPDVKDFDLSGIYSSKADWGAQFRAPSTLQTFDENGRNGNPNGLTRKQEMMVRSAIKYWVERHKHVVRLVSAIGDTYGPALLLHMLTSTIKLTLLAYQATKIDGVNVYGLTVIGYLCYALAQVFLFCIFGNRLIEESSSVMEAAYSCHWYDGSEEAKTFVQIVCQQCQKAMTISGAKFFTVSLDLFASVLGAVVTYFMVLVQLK
Briefly: Ca2+-imaging of stable HEK293T cell line OR2/OR7. It is filed as cell-based. Here is the method:
(§1) Full-length cDNAs for mosquito (Anopheles gambiae) odorant receptor (OR1, OR2, OR7, OR8, OR28), and fly (Drosophila melanogaster) odorant receptor (Or47a, Or83b), mouse TRP channel (TRPM8), and mouse serotonin receptor (5HT3) were obtained and subcloned into mammalian expression vectors. The following mammalian expression vectors were used:
(§2) Stable cell lines OR1/OR7, OR2/OR7, OR8/OR7, OR10/OR7, OR28/OR7 and TRPM8 were generated from HEK293T cells. HEK293T-based cell lines were cultured in DMEM supplemented with these additional antibiotics: 6 μg/mL blasticidin and 1 μg/mL puromycin, with the exception of the TRPM8 cell lines, which was cultured in DMEM supplemented with 1 μg/mL puromycin.
(§3) Cells were trypsinized and split into 35 mm dishes one day before transfection. Confluent cells (60-70%) in 35 mm dishes were transfected with 1 μg of insect OR(X) plasmids in pME18s-bla and 1 μg of OR7-pME18s-puro using lipofectamine 2000. For Anopheles odorant receptors, two plasmids were co-transfected into HEK cells: the ligand-specific receptor (OR1, OR2, OR8, OR28) and the corresponding olfactory co-receptor: OR7. Cell lines containing TRPM8 were transfected with single plasmid.
(§4) Stable cell lines were cultured in 10 cm dishes, and confluent cells (70-80%) were trypsinized. 10,000 cells/20 μL were transferred into each well of 384-well plates coated with poly-D-lysine, and cultured for 2 days. For Flip-In T-Rex cells (cell lines expressing Or47a/Or83b and 5HT3), 5 μL of tetracycline (5 μg/mL) were added 1 day before the assay. 20 μL of Ca-4 dye was loaded into each well for 1.5 hr at room temperature in the dark, and the dye-loaded plates were subjected to Ca^2+-imaging using a Hamamatsu FDSS6000 real time fluorescence plate reader. Odorant solutions (9× final concentration) were prepared by dissolving 1M stock solutions into Hank's Buffered Salt Solution (HBSS), and 30 μL of odor solution was transferred to each well in 384-well plates.
(§5) Compounds ([…] in DMSO) were stored in 384-well plates, and last two columns (32 wells total) contained only DMSO. 200 nL of small compounds were transferred into the odorant plates before the assay using the Perkin-Elmer Janus workstation. The odorant plates were spun down to remove air bubbles, and placed on the FDSS6000 plate loader, and 5 μL of odorant solution was applied to the cell plate on the FDSS6000. Ca^2+ increase was monitored with fluorescence at 525 nm by excitation at 485 nm.

For another test, the target named is T2, OR1/OR7 (Anopheles gambiae, UniProt Q7QCC7+Q8WTE7).
T2 construct: Full-length cDNAs for mosquito (Anopheles gambiae) odorant receptor (OR1, OR2, OR7, OR8, OR28); expressed in transfected cells
T2 sequence (Q8WTE7 1-417): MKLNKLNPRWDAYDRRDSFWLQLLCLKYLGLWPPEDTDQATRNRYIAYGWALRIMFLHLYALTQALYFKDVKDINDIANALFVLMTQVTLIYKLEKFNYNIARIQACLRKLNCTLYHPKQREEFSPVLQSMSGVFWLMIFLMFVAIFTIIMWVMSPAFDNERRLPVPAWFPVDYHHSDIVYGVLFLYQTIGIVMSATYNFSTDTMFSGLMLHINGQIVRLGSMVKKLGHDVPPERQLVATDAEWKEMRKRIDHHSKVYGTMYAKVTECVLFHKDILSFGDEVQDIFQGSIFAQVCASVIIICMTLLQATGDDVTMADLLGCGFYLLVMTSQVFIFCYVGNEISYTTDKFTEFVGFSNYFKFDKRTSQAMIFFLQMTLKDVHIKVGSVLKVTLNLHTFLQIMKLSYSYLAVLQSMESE
T2 sequence (Q7QCC7 1-478): T1 sequence (Q7QCC7 1-478)
The test is described as follows: Ca2+-imaging of stable HEK293T cell line OR1/OR7. The format is cell-based. Here is the method:
as §1, §2, §3, §4, §5

The subject of test [1] is ab5 neuron that expresses the Or47a/Or83b receptor. The test is described as follows: Single sensillum recordings of fly olfactory neurons. It is filed as in vivo, Drosophila melanogaster. The method, then: Female flies (Drosophila melanogaster) of the w^1118 genotype were immobilized by inserting single adult flies into the wide end of a 200 μL pipette tip, and mounting this on a microscope cover glass with a piece of wax. Antennal olfactory neurons of immobilized flies were subjected to extracellular recording using a Syntech 10x AC probe connected to a Syntech IDAC4 amplifier. The recording electrode was inserted into the ab5 sensillum, which contains two olfactory sensory neurons (OSNs), and the reference electrode was placed into the eye. Action potentials in the OSNs induced by odorant stimulation were recorded. 15 μL of odorant [3-methyl-thio-1-propanol; diluted (v/v) in paraffin oil (10^−5 to 10^−3 dilution)], was applied to a filter strip, and 10 μL of test compounds, DEET, or solvent (100% ethanol) was applied on a second filter strip. Both filter strips were placed into a Pasteur glass pipette connected to the Syntech CS55 stimulus device, and applied to the fly antenna for 1 sec. Corrected spike increases were computed by subtracting the average spontaneous activity in 1 sec before odorant stimulus from the average activity during the stimulus.
The effect of selected compounds on odor-evoked action potentials was measured from the ab5 antennal sensillum, which houses the olfactory neuron that expresses the Or47a/Or83b receptor.

The mark [2] stands for this setting: ligand 2-methyl phenol 30 μM, read-out: IC50 OR2 OR7.
The mark [3] stands for this setting: ligand 4-methyl phenol 30 μM, read-out: IC50 OR1 OR7.

Read-outs that look alike come from different tables or passages of the source.

For the compound `CSc1nc(NC(C)C)nc(NC(C)C)n1` [RU-T2], the IC50 at OR2/OR7 and against OR1/OR7 was 2000 to 20000 nM in each case.

On to `CCNc1nc(NCC)nc(SC)n1` [RU-T4], for which the IC50 at OR2/OR7 (setting [2]) is 20000 to 50000 nM; on OR1/OR7 (setting [3]) it was 2000 to 20000 nM.

For the compound `C=CCN(Cc1nccn1Cc1cccc(F)c1)C(=O)c1ccccc1F` [RU-I1], the IC50 at OR2/OR7 (setting [2]) and at OR1/OR7 (setting [3]) was below 2000 nM each time. The “suppression of 3-methyl-thio-1-propanol (3MTP)-evoked action potentials in the ab5 neuron” value (shortened to “suppression of 3-methyl-thio-1-propanol”) in test [1] (3.5 mg dose on a filter paper) was “inhibits responses elicited by 5×10^−4 to 10^−5 dilutions of 3MTP”; in test [1] (10 mg dose on a filter paper) it was “inhibits responses elicited by 10^−3 to 10^−5 dilutions of 3MTP”.

For the compound `Fc1cccc(Cl)c1Cn1ccnc1CN(CC1CCCC1)C1CC1` [RU-I4], the figures for the IC50 on OR2/OR7 (setting [2]) and at OR1/OR7 (setting [3]) were 2000 to 20000 nM and below 2000 nM, respectively.

Turning to `CC(C)Nc1nc(NC(C)C)nc(C(F)(F)F)n1` [RU-T8], the IC50 on OR2/OR7 (setting [2]) and on OR1/OR7 (setting [3]) was below 2000 nM each time.

In the case of `CCNc1nc(Cl)nc(NC(C)C)n1` [RU-T5], the IC50 on OR2/OR7 and against OR1/OR7 was below 2000 nM throughout.

For `CC(C)Nc1nc(Cl)nc(N(C)C(C)C)n1` [RU-T7], the IC50 at OR2/OR7 (setting [2]) and on OR1/OR7 (setting [3]) was below 2000 nM throughout.

With `O=C(C1CCCC1)N(Cc1nccn1CCc1c(F)cccc1Cl)C1CC1` [RU-I2], the IC50 at OR2/OR7 (setting [2]) and on OR1/OR7 (setting [3]) was below 2000 nM throughout. Also, the “suppression of 3-methyl-thio-1-propanol” value in test [1] (3.5 mg dose on a filter paper) is listed as “inhibits responses elicited by 10^−4 to 10^−5 dilutions of 3MTP”; in test [1] (10 mg dose on a filter paper), “inhibits responses elicited by 10^−3 to 10^−5 dilutions of 3MTP”.

For `Cc1nc(NC(C)C)nc(NC(C)C)n1` [RU-T6], the IC50 on OR2/OR7 (setting [2]) is above 20000 nM; on OR1/OR7 (setting [3]), 2000 to 20000 nM.

`CC(C)Nc1nc(Cl)nc(NC(C)C)n1` [RU-T1]: the IC50 on OR2/OR7 (setting [2]) and on OR1/OR7 (setting [3]) was below 2000 nM in each case.

Turning to `CCNc1nc(NC(C)C)nc(SC)n1` [RU-T3], the results for the IC50 at OR2/OR7 and against OR1/OR7 were 2000 to 20000 nM and above 220000 nM, respectively.

Turning to `CN(Cc1nccn1Cc1c(F)cccc1Cl)C(=O)C1CCCC1` [RU-I5], the IC50 at OR2/OR7 (setting [2]) and at OR1/OR7 (setting [3]) was below 2000 nM each time. For the same compound, the “suppression of 3-methyl-thio-1-propanol” value in test [1] (10 mg dose on a filter paper) is listed as “inhibits responses elicited by 10^−3 to 5×10^−5 dilutions of 3MTP”.

With `CC(C)Nc1nc(Cl)nc(NCc2ccccc2)n1` [RU-T9], the IC50 is above 20000 nM at OR2/OR7 (setting [2]) and below 2000 nM on OR1/OR7 (setting [3]).

Take `O=C(c1nccn1Cc1c(F)cccc1Cl)N(CC1CCCC1)C1CC1` [RU-I3]: the IC50 on OR2/OR7 (setting [2]) was 2000 to 20000 nM; at OR1/OR7 (setting [3]), below 2000 nM.

Turning to `CCN(CC)C(=O)c1cccc(C)c1` [DEET, N,N-diethyl-m-toluamide, reference compound], the results for the IC50 against OR2/OR7 and against OR1/OR7 were above 20000 nM and above 740000 nM, respectively.
